Measurements as given in PMC10803372 (Cell Death & Disease, 2024).

Target: T1, PIKfyve (Homo sapiens, UniProt Q9Y2I7)
T1 construct: Recombinant GST-PIKfyve (full-length, #11-118)
Test: in vitro lipid kinase assay, ADP-Glo luminescence, PI([…])P substrate
Type: biochemical

T1 sequence (Q9Y2I7 2-2098): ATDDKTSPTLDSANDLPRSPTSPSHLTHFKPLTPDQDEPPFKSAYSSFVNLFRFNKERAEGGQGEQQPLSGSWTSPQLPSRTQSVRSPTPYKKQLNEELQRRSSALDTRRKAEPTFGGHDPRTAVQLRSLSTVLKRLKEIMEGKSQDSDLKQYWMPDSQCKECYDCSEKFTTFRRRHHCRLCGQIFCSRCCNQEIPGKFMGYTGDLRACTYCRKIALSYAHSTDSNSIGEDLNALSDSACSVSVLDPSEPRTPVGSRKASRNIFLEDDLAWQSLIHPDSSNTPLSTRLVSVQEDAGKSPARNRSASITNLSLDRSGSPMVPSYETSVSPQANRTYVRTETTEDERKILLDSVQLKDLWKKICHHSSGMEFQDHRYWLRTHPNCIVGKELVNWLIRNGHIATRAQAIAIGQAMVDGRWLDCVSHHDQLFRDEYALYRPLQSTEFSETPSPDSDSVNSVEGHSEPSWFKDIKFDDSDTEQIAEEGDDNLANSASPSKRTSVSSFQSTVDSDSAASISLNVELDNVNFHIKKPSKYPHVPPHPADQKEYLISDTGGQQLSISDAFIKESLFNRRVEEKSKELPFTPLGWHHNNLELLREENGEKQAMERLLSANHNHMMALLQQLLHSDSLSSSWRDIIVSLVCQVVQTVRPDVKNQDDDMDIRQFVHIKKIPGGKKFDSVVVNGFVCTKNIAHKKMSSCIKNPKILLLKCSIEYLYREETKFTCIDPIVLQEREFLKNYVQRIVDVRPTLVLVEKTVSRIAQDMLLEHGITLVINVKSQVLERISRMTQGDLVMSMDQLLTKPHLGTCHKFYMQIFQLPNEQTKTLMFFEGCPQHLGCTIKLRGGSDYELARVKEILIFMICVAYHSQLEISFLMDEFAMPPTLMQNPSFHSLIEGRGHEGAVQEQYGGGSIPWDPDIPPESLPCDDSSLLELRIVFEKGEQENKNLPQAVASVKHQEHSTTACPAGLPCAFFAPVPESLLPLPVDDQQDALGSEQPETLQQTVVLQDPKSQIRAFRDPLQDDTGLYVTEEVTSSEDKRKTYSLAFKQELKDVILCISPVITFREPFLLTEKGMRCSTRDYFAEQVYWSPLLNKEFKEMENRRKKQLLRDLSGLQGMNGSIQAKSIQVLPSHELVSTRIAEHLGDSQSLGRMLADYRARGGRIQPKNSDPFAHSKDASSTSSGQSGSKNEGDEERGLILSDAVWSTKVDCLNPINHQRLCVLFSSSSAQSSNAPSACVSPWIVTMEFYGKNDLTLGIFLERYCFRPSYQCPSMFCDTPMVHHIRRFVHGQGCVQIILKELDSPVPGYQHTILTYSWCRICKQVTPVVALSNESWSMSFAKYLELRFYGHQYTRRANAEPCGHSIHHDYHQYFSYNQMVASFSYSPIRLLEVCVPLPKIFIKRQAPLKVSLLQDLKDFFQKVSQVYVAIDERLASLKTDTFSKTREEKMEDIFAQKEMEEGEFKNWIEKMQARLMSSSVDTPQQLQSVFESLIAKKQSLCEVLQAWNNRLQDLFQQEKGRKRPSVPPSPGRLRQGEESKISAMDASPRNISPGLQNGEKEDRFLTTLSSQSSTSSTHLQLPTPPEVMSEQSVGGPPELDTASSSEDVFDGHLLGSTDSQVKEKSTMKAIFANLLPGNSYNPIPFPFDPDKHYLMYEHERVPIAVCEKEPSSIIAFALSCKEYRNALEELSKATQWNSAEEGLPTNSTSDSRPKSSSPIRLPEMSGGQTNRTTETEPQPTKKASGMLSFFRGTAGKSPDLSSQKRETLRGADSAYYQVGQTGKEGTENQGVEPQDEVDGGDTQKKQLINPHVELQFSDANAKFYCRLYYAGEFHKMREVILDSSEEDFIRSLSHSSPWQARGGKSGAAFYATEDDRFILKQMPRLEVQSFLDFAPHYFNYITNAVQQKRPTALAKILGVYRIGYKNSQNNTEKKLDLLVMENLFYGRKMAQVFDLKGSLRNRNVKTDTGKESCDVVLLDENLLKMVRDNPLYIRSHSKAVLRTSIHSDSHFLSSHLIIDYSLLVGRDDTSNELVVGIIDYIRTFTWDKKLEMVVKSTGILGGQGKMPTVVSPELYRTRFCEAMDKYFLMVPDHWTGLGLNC

IC50: 355 ± 36.2 nM
Compound: Oc1ccc(-c2nc(-c3ccncc3)c(-c3ccc(F)cc3)[nH]2)cc1 [SB202190]
